# Tested on: IL-1β release, THP-1 cells
# Assay: IL-1β release assay in differentiated THP-1 cells stimulated with BzATP (Example 9)
# Assay type: cell-based
# Conditions: Homo sapiens; for inhibition at 0.3 µM: 0.3 μM compound ("+" symbols), differentiated THP-1 cells, 250 uM BzATP, read-out: IL-1β% Inhib. @ 0.3 or 0.1 μM; for IC50: THP-1 cells, BzATP 250 uM, four parameter logistic fit
# Experimental: THP-1 cells (ATCC Cat # 285-IF-100) are plated in 96 well plates at a concentration of 200,000 cells per well and allowed to differentiate in RPMI-1640 media (ATCC Cat # 30-2001) containing 10% FBS, 100 IU/mL penicillin, 100 ug/mL streptomycin, 100 ng/mL LPS and 100 ng/mL IFN-γ for 16 hours. Following differentiation, the cells are treated for an additional 2 hours in RPMI-1640 media containing 100 IU/mL penicillin, 100 ug/mL streptomycin and fresh LPS at 100 ng/mL. The cells are then pretreated for 30 minutes with the compound of interest at the appropriate concentration in RPMI media containing 100 IU/mL penicillin, 100 ug/mL streptomycin. Following the pretreatment 2′,3′-O-(4-benzoylbenzoyl)-adenosine 5′-triphosphate (Sigma Aldrich Cat # B6396) is added to a final concentration of 250 uM and the cells are incubated for an additional 45 minutes. 30 uL of cell supernatant is then collected and IL-1β levels determined via ELISA (R&D systems Cat. # HSLB50) according to manufacturer's recommendations using the Tecan Safire plate reader. Background adjusted IL-1β levels of drug treated and non-treated cells are used to calculate the percent inhibition.
# The following compounds have been or can be prepared according to the synthetic methods described above. For the purpose of Table 1 below, activity of each compound, which can be determined using the IL-1β assay method described in Example 9, is expressed as follows: […]
# The compounds set forth in Table 1 were tested for activity in a cellular model as described herein. Specifically, cells were pretreated with differing amounts of the compound under test and released IL-1β determined as in Example 9, above. Measurements were made and IC50 values, presented in Table 2, below, were determined by fitting the data to a four parameter logistic equation using GraphPad Prism software (GraphPad Software, Inc). The equation may be expressed by the following formula:
# Y=Bottom+(Top−Bottom)/(1+10̂((Log EC50−X)*HillSlope))
# Where X is the logarithm of concentration, Y is the response and Y starts at Bottom and goes to Top with a sigmoid shape.
IC50 [nM],SMILES,inhibition at 0.3 µM [%]
199,CC(C)(C)OC(=O)N1CCC(OCC(=O)N2CCc3c(cccc3NC(=O)Cc3ccc(C(F)(F)F)c(F)c3)C2)CC1 [Compound 3047],51 to 75
473,C[C@H](NC(=O)OC(C)(C)C)C(=O)N1CCc2c(cccc2NC(=O)Cc2ccc(C(F)(F)F)c(F)c2)C1 [Compound 3048],0 to 25
492,CS(=O)(=O)N1CCc2c(ccc(Cl)c2NC(=O)Cc2ccc(C(F)(F)F)cc2)C1 [Compound 3050],26 to 50
73,O=C(Cc1ccc(C(F)(F)F)c(F)c1)Nc1cccc2c1CCN(C(=O)[C@H]1CCCN1)C2 [Compound 3051],≥ 76
890,O=C(Cc1ccc(C(F)(F)F)c(F)c1)Nc1cccc2c1CCN(C(=O)COC1CCNCC1)C2 [Compound 3052],0 to 25
684,C[C@H](N)C(=O)N1CCc2c(cccc2NC(=O)Cc2ccc(C(F)(F)F)c(F)c2)C1 [Compound 3054],0 to 25
182,O=C(Cc1ccc(C(F)(F)F)c(F)c1)Nc1cccc2c1CCN(C(=O)[C@@H]1CCCN1)C2 [Compound 3055],51 to 75
56.3,"N[C@@H](Cc1ccccc1)C(=O)N1CCc2c(cccc2NC(=O)Cc2ccc(C(F)(F)F)c(F)c2)C1 [Compound 3056, N-[2-((S)-2-Amino-3-phenyl-propionyl)-1,2,3,4-tetrahydro-isoquinolin-5-yl]-2-(3-fluoro-4-trifluoromethyl-phenyl)-acetamide]",≥ 76
338,"CCC(O)CN1CCc2c(cccc2NC(=O)Cc2ccc(C(F)(F)F)c(F)c2)C1 (stereo not drawn) [Compound 3058, 2-(3-Fluoro-4-trifluoromethyl-phenyl)-N-[2-(2-hydroxy-butyl)-1,2,3,4-tetrahydro-isoquinolin-5-yl]-acetamide]",26 to 50
64.4,"Cc1ccc2c(c1NC(=O)Cc1ccc(C(F)(F)F)cc1)CCN(C(=O)[C@H]1CCCN1)C2 [Compound 3060, N-[6-Methyl-2-((R)-pyrrolidine-2-carbonyl)-1,2,3,4-tetrahydro-isoquinolin-5-yl]-2-(4-trifluoromethyl-phenyl)-acetamide]",≥ 76
35.1,"Cc1ccc2c(c1NC(=O)Cc1ccc(C(F)(F)F)c(F)c1)CCN(C(=O)[C@H]1CCCN1)C2 [Compound 3061, 2-(3-Fluoro-4-trifluoromethyl-phenyl)-N-[6-methyl-2-((R)-pyrrolidine-2-carbonyl)-1,2,3,4-tetrahydro-isoquinolin-5-yl]-acetamide]",≥ 76
76.7,Cc1ccc2c(c1NC(=O)Cc1cccc(C(F)(F)F)c1F)CCN(C(=O)[C@H]1CCCN1)C2 [Compound 3062],≥ 76

# Continued, compound first:
SMILES,IC50 [nM],inhibition at 0.3 µM [%]
CC(C)(C)OC(=O)NC(Cc1ccccc1)C(=O)N1CCc2c(cccc2NC(=O)Cc2ccc(C(F)(F)F)c(F)c2)C1 (stereo not drawn) [Compound 3045],385,26 to 50
"N#CN1CCc2c(cccc2NC(=O)Cc2ccc(C(F)(F)F)c(F)c2)C1 [Compound 3053, N-(2-Cyano-1,2,3,4-tetrahydro-isoquinolin-5-yl)-2-(3-fluoro-4-trifluoromethyl-phenyl)-acetamide]",> 1000,0 to 25
"O=C(Cc1ccc(C(F)(F)F)c(F)c1)Nc1cccc2c1CCN(CC(O)CCl)C2 (stereo not drawn) [Compound 3057, N-[2-(3-Chloro-2-hydroxy-propyl)-1,2,3,4-tetrahydro-isoquinolin-5-yl]-2-(3-fluoro-4-trifluoromethyl-phenyl)-acetamide]",428,26 to 50
"CC(c1ccc(F)cc1)N1CCc2c(cccc2NC(=O)Cc2ccc(C(F)(F)F)c(F)c2)C1 (stereo not drawn) [Compound 3059, N-{2-[1-(4-Fluoro-phenyl)-ethyl]-1,2,3,4-tetrahydro-isoquinolin-5-yl}-2-(3-fluoro-4-trifluoromethyl-phenyl)-acetamide]",256,51 to 75
CCCC(O)CN1CCc2c(cccc2NC(=O)Cc2ccc(C(F)(F)F)c(F)c2)C1 (stereo not drawn) [Compound 3063],673,26 to 50
O=C(Cc1ccc(C(F)(F)F)c(F)c1)Nc1cccc2c1CCN(CC(O)CF)C2 (stereo not drawn) [Compound 3064],> 1000,0 to 25
"O=C(Cc1ccc(C(F)(F)F)c(F)c1)Nc1cccc2c1CCN(CC(O)c1ccc(F)cc1)C2 (stereo not drawn) [Compound 3065, N-{2-[2-(4-Fluoro-phenyl)-2-hydroxy-ethyl]-1,2,3,4-tetrahydro-isoquinolin-5-yl}-2-(3-fluoro-4-trifluoromethyl-phenyl)-acetamide]",206,51 to 75
O=C(Cc1ccc(C(F)(F)F)c(F)c1)Nc1cccc2c1CCN(CC(O)c1ccc(Cl)cc1)C2 (stereo not drawn) [Compound 3066],219,51 to 75
O=C(Cc1ccc(C(F)(F)F)c(F)c1)Nc1cccc2c1CCN(CC(O)C(O)(c1ccccc1)C(F)(F)F)C2 (stereo not drawn) [Compound 3067],150,≥ 76
O=C(Cc1ccc(C(F)(F)F)c(F)c1)Nc1c(Cl)ccc2c1CCN(C(=O)c1c(Cl)cccc1Cl)C2 [Compound 3068],,0 to 25
CC(=O)N1CCc2c(ccc(Cl)c2NC(=O)Cc2ccc(C(F)(F)F)c(F)c2)C1 [Compound 3069],,0 to 25
O=C(Cc1ccc(C(F)(F)F)c(F)c1)Nc1c(Cl)ccc2c1CCN(C(=O)c1ccc(Cl)cc1)C2 [Compound 3073],,0 to 25
Cc1cccc(C(=O)N2CCc3c(ccc(Cl)c3NC(=O)Cc3ccc(C(F)(F)F)c(F)c3)C2)c1 [Compound 3074],,26 to 50
O=C(Cc1ccc(C(F)(F)F)c(F)c1)Nc1c(Cl)ccc2c1CCN(C(=O)CCC1CCCC1)C2 [Compound 3075],,0 to 25
COc1ccc(C(=O)N2CCc3c(ccc(Cl)c3NC(=O)Cc3ccc(C(F)(F)F)c(F)c3)C2)cc1 [Compound 3076],,0 to 25
O=C(Cc1ccc(C(F)(F)F)c(F)c1)Nc1c(Cl)ccc2c1CCN(C(=O)c1ccc(-c3ccccc3)cc1)C2 [Compound 3077],,0 to 25
O=C(Cc1ccc(C(F)(F)F)c(F)c1)Nc1c(Cl)ccc2c1CCN(C(=O)c1cc(F)c(F)cc1F)C2 [Compound 3078],,0 to 25
O=C(Cc1ccc(C(F)(F)F)c(F)c1)Nc1c(Cl)ccc2c1CCN(C(=O)c1cccnc1)C2 [Compound 3079],,0 to 25
O=C(Cc1ccc(C(F)(F)F)c(F)c1)Nc1c(Cl)ccc2c1CCN(C(=O)C1CCCC1)C2 [Compound 3080],,51 to 75
COc1ccc(OC)c(CC(=O)N2CCc3c(ccc(Cl)c3NC(=O)Cc3ccc(C(F)(F)F)c(F)c3)C2)c1 [Compound 3081],,0 to 25
O=C(Cc1ccc(C(F)(F)F)c(F)c1)Nc1c(Cl)ccc2c1CCN(C(=O)Cc1ccc(F)cc1)C2 [Compound 3083],,0 to 25
CCCc1ccc(C(=O)N2CCc3c(ccc(Cl)c3NC(=O)Cc3ccc(C(F)(F)F)c(F)c3)C2)cc1 [Compound 3084],,0 to 25
O=C(Cc1ccc(C(F)(F)F)c(F)c1)Nc1c(Cl)ccc2c1CCN(C(=O)c1ccc(Cl)c(Cl)c1)C2 [Compound 3086],,0 to 25
COc1cc(OC)cc(C(=O)N2CCc3c(ccc(Cl)c3NC(=O)Cc3ccc(C(F)(F)F)c(F)c3)C2)c1 [Compound 3087],,0 to 25
